Data set [1] concerns Candida krusei Strain M13C4. The data set can be described thus: MIC of fluconazole for Candida krusei with lead compounds. It counts as cell-based. The settings on record: for MIC of fluconazole: Fluconazole + lead compound.
Another data set relates to C. albicans isolates. The settings on record: cited from earlier work.
For data set [2], the system named is C. albicans. In words: Paper disk zones of inhibition on YPD agar plates inoculated with C. albicans. The data set is classed as cell-based, Candida albicans. The settings on record: for zone of inhibition, combination with fluconazole: disk with fluconazole 1 mg/ml + compound 2.5 mg/ml.
The test system of data set [3] is C. albicans. The data set can be described thus: Time-kill experiments in liquid culture of C. albicans. It counts as cell-based, Candida albicans. Conditions: for effect on growth of the yeast, compound alone: 10 μg/ml, no fluconazole; for colonies from plating of a milliliter of culture: combination with fluconazole, culture initially 3000 CFU/ml; for drop in number of live cells after 24 hours, combination with fluconazole / drop in number of live cells after 48 hours, combination with fluconazole: fluconazole 32 μg/ml + compound 10 μg/ml.

For data set [4], the system named is C. albicans isolates (sensitive; isolate #4 over expressing MDR1). In words: microbe, parasite or virus in culture. The data set is classed as cell-based. Conditions: Candida albicans.
For data set [5] the following is noted: cited from earlier work.
Data set [6] deals with Candida krusei Strain M13C4. In words: Killing of Candida krusei by fluconazole combinations (CFU/ml after 24 hours). It counts as cell-based. Conditions: for CFU/ml after 24 hours incubation: inoculated at 6000 CFU/ml; for effect in combination with fluconazole on C. kruzei: fluconazole at concentration exceeding its MIC; for effect of compound alone on C. kruzei: not shown.

Data set [7] has as its system Candida krusei Strain M13C4. Conditions: cited from earlier work.
The subject of data set [8] is sterol composition of C. Albicans. In words: TLC analysis of sterols of C. albicans. The data set is classed as cell-based, Candida albicans. Conditions: 24 hours.
The test system of data set [9] is C. albicans. The data set can be described thus: Fungicidal synergy with fluconazole against C. albicans (active concentration of leads and analogs). It counts as cell-based, Candida albicans. Conditions: for activity (concentration synergizing with fluconazole to a fungicidal effect): fluconazole 32 μg/ml; for concentration at which fungicidal activity is observed: combined with high concentrations of fluconazole (16 μg/ml and more). The protocol: In summary, the performed screens of the chemical library identified a number of interesting potentiators of azole activity. Of these potentiators the inventors chose for further development two lead compounds, INF 801 and INF 802. […] Unlike compound INF 799, which is active at very low concentration (2 ng/ml, see above), INF 801 and INF 802 need to be present at relatively high concentrations to be active. When combined with high concentrations of fluconazole (16 μg/ml and more), their fungicidal activity is observed at 1.25 or 2.5 μg/ml, respectively. At concentrations of the azole that are clinically relevant (4 μg/ml), they are active only at ˜5-10 μg/ml.
Eleven structural analogs of INF 801 and fourteen analogs of INF 802 were purchased from ChemBridge, Maybridge and Aldrich and tested for activity. […] The numbers presented in these two tables indicate the -fold reduction in the number of live cells after 24 hour incubation with the combinations of azoles and potentiators. The higher the number, the higher the fungicidal activity of the combination. Note that concentrations of drags are somewhat different in the two tables, so the comparison between the two tables is not meaningful.

Data set [10] concerns C. albicans. The data set can be described thus: Growth of C. albicans in liquid culture with compound alone (without fluconazole). The data set is classed as cell-based, Candida albicans.
For data set [11], the system named is C. albicans strain ATCC 90028. In words: Fold reduction of live cells after 24 hr incubation with combinations of azoles and potentiators. The data set is classed as cell-based, Candida albicans. Here is the method:
Eleven structural analogs of INF 801 and fourteen analogs of INF 802 were purchased from ChemBridge, Maybridge and Aldrich and tested for activity. […] The numbers presented in these two tables indicate the -fold reduction in the number of live cells after 24 hour incubation with the combinations of azoles and potentiators. The higher the number, the higher the fungicidal activity of the combination. Note that concentrations of drags are somewhat different in the two tables, so the comparison between the two tables is not meaningful. [table] [table]

A further data set is described as follows: Solubility limit. It counts as physicochemical. The settings on record: liquid culture of C. albicans.
Where [12] appears, read: disk soaked in fluconazole 1 mg/ml or compound 2.5 mg/ml in DMSO.
[13] abbreviates: compound at 10 μg/ml, inoculum 7600 CFU/ml.
Setting [14] is: fluconazole 128 μg/ml + compound 20 μg/ml.
Setting [15] is: compound at 5 μg/ml, inoculum 8000 CFU/ml.

Results on twelve compounds are retold here after US20020193369A1, “Antifungal compounds and uses therefor” (priority 2000, published 2002).

Molecules are shown by their SMILES. In brackets after ≈: the same amount, converted by molar mass. Read-outs that look alike come from different tables or passages of the source. Marks after values point to notes of the source that are not given here. A value given as a limit tells only on which side of the number the result lay.

Turning to `OC(Cn1cncn1)(Cn1cncn1)c1ccc(F)cc1F` [Fluconazole, reference compound], the MIC in data set [1] (Pichia kudriavzevii, STRAINM13C4, Fluconazole alone) came out at 64 µg/mL; in data set [4] (read-out: MIC of fluconazole, isolate #4), 8 µg/mL. Further, the “MIC of fluconazole after 48 hours” value in the data set on C. albicans isolates (many isolates) was “exceeds 64 μg/ml”. Moreover, the “MIC of fluconazole after 24 hours of incubation” value in the data set with C. albicans isolates (most isolates) is under 4 µg/mL. Further, the “zone of inhibition, single agent” value in the data set on C. albicans [2] is listed as “pronounced zone of growth inhibition”. Also, the “change in number of CFUs after 48 hours, fluconazole alone” value in the data set on C. albicans [3] (fluconazole 32 μg/ml, 48 hours) is listed as “four orders of magnitude”. Further, in data set [4] (read-out: MIC80 of fluconazole in sensitive isolates), the MIC80 lay within 0.5 to 1 µg/mL (≈ 1.63 to 3.27 µM). For the same compound, the “absorption from the GI tract” value in data set [5] (in vivo) is listed as “almost completely absorbed”. Moreover, the “effect of fluconazole alone on C. kruzei” value in [6] (128 μg/ml) was “strongly fungistatic”. For the same compound, in data set [6] (fluconazole 128 μg/ml alone), the “CFU/ml after 24 hours incubation” value was 6230 CFU/ml. In addition, the “MIC of fluconazole for C. kruzei (general range)” value in [7] is 8 to 128 µg/mL. In addition, the “effect of fluconazole on ergosterol” value in data set [8] (increasing concentrations of fluconazole) is recorded as “decrease in the amount of ergosterol”.

For `OCC(O)Cn1c2ccc(Cl)cc2c2cc(Cl)ccc21` (stereo not shown) [DV 236818], the “activity (concentration synergizing with fluconazole to a fungicidal effect)” value in the data set on C. albicans [9] turned out to be 5 µg/mL.

Regarding `CCC(C)n1ncn(-c2ccc(N3CCN(c4ccc(OCC5COC(Cn6cncn6)(c6ccc(Cl)cc6Cl)O5)cc4)CC3)cc2)c1=O` (stereo not shown) [Itraconazole], the “absorption in the fasting state relative to drug taken with food” value in [5] (in vivo, po) was 30%.

Turning to `O=C(O)CCn1c2ccc(Cl)cc2c2cc(Cl)ccc21` [INF 801], in [1], the MIC of fluconazole was 16 µg/mL. Moreover, in the data set with C. albicans [2], the “growth within zones after a week of incubation, combination with fluconazole” value is “no growth” and the “zone of inhibition, combination with fluconazole” value is “large zones of inhibition lacking any growth”. Also, in the data set with C. albicans [2] (setting [12]), the “zone of inhibition, single agent” value is given as “narrow zones of inhibition”. Further, in the data set on C. albicans [9], the “concentration at which fungicidal activity is observed” value stood at 1.25 µg/mL. In the data set with C. albicans [3], the “effect on growth of the yeast, compound alone” value is “very little effect on the growth of the yeast”; the “colonies from plating of a milliliter of culture” value is reported as “no colonies”; the “drop in number of live cells after 24 hours, combination with fluconazole” value is “two orders of magnitude”. Besides, the “drop in number of live cells after 48 hours, combination with fluconazole” value in the data set on C. albicans [3] (48 hours) was “more than three orders of magnitude”. Also, the “concentration affecting growth of C. albicans without fluconazole” value in the data set on C. albicans [10] is “exceeding 30 μg/ml”. In addition, in data set [11] (setting [13]), the “fold reduction of the concentration of live cells, + Fluconazole, 16 μg/ml” value (“fold reduction of the concentration … 16 μg/ml” for short) is listed as 48* fold; the “fold reduction of the concentration of live cells, + Itraconazole, 0.5 μg/ml” value was found to be 30 fold; the “fold reduction of the concentration of live cells, + Ketaconazole, 0.5 μg/ml” value stood at 28 fold. Also, in data set [6], the “effect in combination with fluconazole on C. kruzei” value is listed as “strongly fungicidal” and the “effect of compound alone on C. kruzei” value is on record as “harmless”. Also, the “CFU/ml after 24 hours incubation” value in data set [6] (setting [14]) worked out at 20 CFU/ml. Moreover, the “sterol pattern with fluconazole in the presence of INF 801” value in data set [8] (differing concentrations of fluconazole) is listed as “substituting sterols accumulate in much smaller amounts than in the control”.

Take `O=CC12c3ccccc3C(c3ccccc31)c1ccccc12` [S 060128]: in data set [11] (setting [15]), the “fold reduction of the concentration … 16 μg/ml” value is 36 fold; the “fold reduction of the concentration of live cells, + Itraconazole, 1 μg/ml” value is on record as 69 fold; the “fold reduction of the concentration of live cells, + Ketaconazole, 1 μg/ml” value came out at 380 fold.

As to `Clc1ccccc1C(c1ccccc1)(c1ccccc1)n1ccnc1` [Clotrimazole], in data set [5] (in vivo), the “absorption after application to the skin” value is “less than 0.5%” and the “absorption from the vagina” value was 3-10%.

As to `OC(CN1CCC(/C=C/C2=CC=CCC2)CC1)Cn1c2ccccc2c2ccccc21` (stereo not shown) [DV 236683], the “activity (concentration synergizing with fluconazole to a fungicidal effect)” value in the data set with C. albicans [9] amounted to 5 µg/mL.

As for `OCC(O)Cn1c2ccc(Br)cc2c2cc(Br)ccc21` (stereo not shown) [Compound S243213], the “activity (concentration synergizing with fluconazole to a fungicidal effect)” value with C. albicans [9] amounted to 0.6 µg/mL. For the same compound, in [11] (setting [13]), the “fold reduction of the concentration … 16 μg/ml” value is 6.9 fold; the “fold reduction of the concentration of live cells, + Itraconazole, 0.5 μg/ml” value amounted to 6.3 fold; the “fold reduction of the concentration of live cells, + Ketaconazole, 0.5 μg/ml” value is 7.8 fold.

`Clc1ccc(COC(Cn2ccnc2)c2ccc(Cl)cc2Cl)cc1` (stereo not shown) [Econazole]: the “fraction absorbed into the blood” value in [5] (in vivo) is recorded as “Less than 1%”.

On to `OC(CN1CCC(/C=C/C2=CC=CCC2)CC1)Cn1c2ccc(Cl)cc2c2cc(Cl)ccc21` (stereo not shown) [DV 236687], for which the “activity (concentration synergizing with fluconazole to a fungicidal effect)” value in the data set on C. albicans [9] came to 10 µg/mL.

`O=C(O)C12c3ccccc3C(c3ccccc31)c1ccccc12` [INF 802]: the MIC of fluconazole in data set [1] was found to be 32 µg/mL. In the data set with C. albicans [2], the “growth within zones after a week of incubation, combination with fluconazole” value is listed as “no growth” and the “zone of inhibition, combination with fluconazole” value was “large zones of inhibition lacking any growth”. The “zone of inhibition, single agent” value with C. albicans [2] (setting [12]) was “narrow zones of inhibition”. Besides, the “concentration at which fungicidal activity is observed” value with C. albicans [9] was found to be 2.5 µg/mL. In addition, in the data set with C. albicans [3], the “effect on growth of the yeast, compound alone” value is given as “very little effect on the growth of the yeast”; the “colonies from plating of a milliliter of culture” value is given as “no colonies”; the “drop in number of live cells after 24 hours, combination with fluconazole” value was “two orders of magnitude”. Further, the “drop in number of live cells after 48 hours, combination with fluconazole” value in the data set with C. albicans [3] (48 hours) was “more than three orders of magnitude”. In addition, in the data set on C. albicans [10], the “concentration affecting growth of C. albicans without fluconazole” value was over 80 µg/mL. Moreover, in data set [11] (setting [15]), the “fold reduction of the concentration … 16 μg/ml” value is 5.5 fold; the “fold reduction of the concentration of live cells, + Itraconazole, 1 μg/ml” value was 5.0 fold; the “fold reduction of the concentration of live cells, + Ketaconazole, 1 μg/ml” value worked out at 6.0 fold. In [6], the “effect in combination with fluconazole on C. kruzei” value is “strongly fungicidal” and the “effect of compound alone on C. kruzei” value is “harmless”. For the same compound, the “CFU/ml after 24 hours incubation” value in [6] (setting [14]) is recorded as 20 CFU/ml. This compound also showed a solubility in the data set “Solubility limit” of 80 µg/mL (≈ 268 µM).

In the case of `CC(=O)N1CCN(c2ccc(OCC3COC(Cn4ccnc4)(c4ccc(Cl)cc4Cl)O3)cc2)CC1` (stereo not shown) [Ketoconazole], the peak plasma concentrations in data set [5] (oral doses 200-800 mg) was 4 to 20 µg/mL.

Broadly, the solubility is how much of the substance goes into solution per volume. Read a high solubility as a readily soluble substance.
